Test results published in patent publication US12195427B2, “MASP-2 inhibitors and methods of use” (priority 2018, dated 2025).

Target: MASP-2 CCP2-SP (Homo sapiens (Human), UniProt O00187)
Test: MASP-2 co-crystallization, X-ray crystallography and structure analysis (H-bonds, van der Waals contacts);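 as to Ligand-pharmacophore element distance, pharmacophore element C2: distance from averaged pharmacophore element to bound ligand; missing value means element absent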;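 as to Ligand-pharmacophore element distance, pharmacophore element C3: distance from averaged pharmacophore element to bound ligand; missing value means element absent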;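 as to Ligand-pharmacophore element distance, pharmacophore element C4: distance from averaged pharmacophore element to bound ligand; missing value means element absent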;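 as to Ligand-pharmacophore element distance, pharmacophore element C5: distance from averaged pharmacophore element to bound ligand; missing value means element absent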
Parameters: van der Waals contact distance, MASP-2 HIS 483 atom CD2 / van der Waals contact distance, MASP-2 HIS 483 atom NE2 / van der Waals contact distance, SER 654 C to compound atom / van der Waals contact distance, SER 654 O to compound atom / van der Waals contact distance, TRP 655 C to compound atom / van der Waals contact distance, MASP-2 GLY 528 atom CA / van der Waals contact distance TRP 655 atom CZ3 / van der Waals contact distance TRP 655 atom N / van der Waals contact distance TRP 655 atom CE3 / van der Waals contact distance GLY 656 atom C / van der Waals contact distance GLY 656 atom CA / van der Waals contact distance GLY 656 atom O / van der Waals contact distance, MASP-2 TYR 607 atom CD1 / van der Waals contact distance, MASP-2 PRO 606 atom O / d(C3,CA1) / d(CA1,N1)2 / d(H4,O1) / d(H4,O2) / d(O1,O2) / d(CA1,O2) / d(CA6,O1) / d(CA6,O2) / d(CA1,C5) / d(O2,H3) / d(N2,C2) / d(CA5,N2) / d(N2,C4) / d(N2,C6) / d(N2,CA3) / d(N2,O3) / d(O4,H2): unit not given beside the values
Settings: for Ligand-pharmacophore element distance, pharmacophore element C2 / Ligand-pharmacophore element distance, pharmacophore element C3 / Ligand-pharmacophore element distance, pharmacophore element C4 / Ligand-pharmacophore element distance, pharmacophore element C5 / Ligand-pharmacophore element distance, pharmacophore element C6 / Ligand-pharmacophore element distance, pharmacophore element C7 / Ligand-pharmacophore element distance, pharmacophore element CA1 / Ligand-pharmacophore element distance, pharmacophore element CA2 / Ligand-pharmacophore element distance, pharmacophore element CA3 / Ligand-pharmacophore element distance, pharmacophore element CA4 / Ligand-pharmacophore element distance, pharmacophore element CA5 / Ligand-pharmacophore element distance, pharmacophore element CA6: Table A4-1; for d(CA1,N1) / d(CA1,O1) / d(CA1,O2) / d(H4,O1) / d(H4,O2) / d(O1,O2): Table A5-1 pharmacophore: distance between elements, S2/S1 region; for a(CA1, O1, O2) / a(O1, O2, H4) / A(N1, CA1, O1) a): Table A6-1 pharmacophore angle; for A(N1, CA1, O1) a): all compounds with protonatable center N1 except Methyl-amino-pyridine; for Pharmacophore torsion angle a(O1, O2, N2, CA2) / Pharmacophore torsion angle a(O1, O2, N2, CA3) / Pharmacophore torsion angle a(O1, O2, N2, H1) / Pharmacophore torsion angle a(O1, O2, N2, O3): Table A7-2
Summary of the method: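 Contacts and H-bonds come from partially refined soaked-crystal structures of recombinant human CCP2-SP made in E. coli, solved by molecular replacement against 1Q3X fragments. Where several ligand poses appeared, only one was analysed; listed nonbonded contacts may include possible H-bond pairings.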

[1] = Table A5-2 pharmacophore distance, S3/S4 region
[2] = Table A7-1, between pharmacophore elements of the bound compound
[3] = between pharmacophore elements of the bound compound
[4] = Table A8-6, nearest protein atom in cell to the left

Sequence of MASP-2 CCP2-SP (O00187 445-686): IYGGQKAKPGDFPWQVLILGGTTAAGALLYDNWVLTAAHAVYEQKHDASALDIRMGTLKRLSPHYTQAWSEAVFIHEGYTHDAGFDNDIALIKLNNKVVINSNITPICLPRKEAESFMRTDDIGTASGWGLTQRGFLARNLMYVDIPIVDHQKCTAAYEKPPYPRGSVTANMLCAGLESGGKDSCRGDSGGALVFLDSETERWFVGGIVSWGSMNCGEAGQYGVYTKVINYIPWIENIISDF
Sequence of MASP-2 CCP2-SP (O00187 364-432 partner): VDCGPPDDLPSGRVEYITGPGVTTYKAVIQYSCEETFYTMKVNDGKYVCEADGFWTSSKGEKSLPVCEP

CC(NC(=O)C(CCc1ccccc1)NCCCc1ccc(O)cc1)C(=O)NCc1ccc(C(=N)N)cc1.Cl.Cl (stereo not shown) [1145_A]
Ligand-pharmacophore element distance, pharmacophore element C2: 0 | Ligand-pharmacophore element distance, pharmacophore element C3: 0 | Ligand-pharmacophore element distance, pharmacophore element C4: 0 | Ligand-pharmacophore element distance, pharmacophore element C5: 0 | Ligand-pharmacophore element distance, pharmacophore element C6: 0 | Ligand-pharmacophore element distance, pharmacophore element C7: 0 | Ligand-pharmacophore element distance, pharmacophore element CA1: 0.47 | Ligand-pharmacophore element distance, pharmacophore element CA2: 0.41 | Ligand-pharmacophore element distance, pharmacophore element CA3: 1.22 | Ligand-pharmacophore element distance, pharmacophore element CA4: 0 | Ligand-pharmacophore element distance, pharmacophore element CA5: 0 | Ligand-pharmacophore element distance, pharmacophore element CA6: 0 | d(CA1,N1): 3.54 | d(CA1,O1): 4.42 | d(CA1,O2): 4.42 | d(H4,O1): 4.89 | d(H4,O2): 4.48 | d(O1,O2): 3.28 | d(N2,CA2) [1]: 5.91 | d(N2,CA3) [1]: 5.59 | d(N2,H1) [1]: 8.64 | d(N2,O3) [1]: 7.97 | d(O2,H3) [1]: 5.36 | d(O2,N2) [1]: 2.77 | a(CA1, O1, O2): 111.73 | a(O1, O2, H4): 139.31 | A(N1, CA1, O1) a): 162.28 | a(O1, O2, H3) (Table A6-2 pharmacophore angle): 150.25 | a(O1, O2, N2) (Table A6-2 pharmacophore angle): 136.24 | a(O2, N2, CA2) (Table A6-2 pharmacophore angle): 153.28 | a(O2, N2, CA3) (Table A6-2 pharmacophore angle): 161.48 | a(O2, N2, H1) (Table A6-2 pharmacophore angle): 168.81 | a(O2, N2, O3) (Table A6-2 pharmacophore angle): 168.41 | Pharmacophore torsion angle a(H4, O1, O2, H3) [2]: 48.71 | Pharmacophore torsion angle a(H4, O1, O2, N2) [2]: 124.15 | Pharmacophore torsion angle a(N1, CA1, O2, H4) [2]: −128.41 | Pharmacophore torsion angle a(O1, H4, O2, CA1) [2]: −59.90 | Pharmacophore torsion angle a(O1, O2, N2, CA2) [3]: 140.87 | Pharmacophore torsion angle a(O1, O2, N2, CA3) [3]: −15.65 | Pharmacophore torsion angle a(O1, O2, N2, H1) [3]: −17.10 | Pharmacophore torsion angle a(O1, O2, N2, O3) [3]: −10.98

C[C@H](NC(=O)[C@@H](CCc1ccccc1)NCCCc1ccc(O)cc1)C(=O)NCc1ccc(C(=N)N)cc1.Cl.Cl [1145_B]
Ligand-pharmacophore element distance, pharmacophore element C2: 0 | Ligand-pharmacophore element distance, pharmacophore element C3: 0 | Ligand-pharmacophore element distance, pharmacophore element C4: 0 | Ligand-pharmacophore element distance, pharmacophore element C5: 0 | Ligand-pharmacophore element distance, pharmacophore element C6: 0 | Ligand-pharmacophore element distance, pharmacophore element C7: 0 | Ligand-pharmacophore element distance, pharmacophore element CA1: 0.47 | Ligand-pharmacophore element distance, pharmacophore element CA2: 0.41 | Ligand-pharmacophore element distance, pharmacophore element CA3: 1.22 | Ligand-pharmacophore element distance, pharmacophore element CA4: 0 | Ligand-pharmacophore element distance, pharmacophore element CA5: 0 | Ligand-pharmacophore element distance, pharmacophore element CA6: 0 | d(CA1,N1): 3.54 | d(CA1,O1): 4.42 | d(CA1,O2): 4.42 | d(H4,O1): 4.89 | d(H4,O2): 4.48 | d(O1,O2): 3.28 | d(N2,CA2) [1]: 5.91 | d(N2,CA3) [1]: 5.59 | d(N2,H1) [1]: 8.68 | d(N2,O3) [1]: 7.97 | d(O2,H3) [1]: 5.36 | d(O2,N2) [1]: 2.77 | a(CA1, O1, O2): 111.73 | a(O1, O2, H4): 139.31 | A(N1, CA1, O1) a): 162.28 | a(O1, O2, H3) (Table A6-2 pharmacophore angle): 150.25 | a(O1, O2, N2) (Table A6-2 pharmacophore angle): 136.24 | a(O2, N2, CA2) (Table A6-2 pharmacophore angle): 153.28 | a(O2, N2, CA3) (Table A6-2 pharmacophore angle): 161.48 | a(O2, N2, H1) (Table A6-2 pharmacophore angle): 168.66 | a(O2, N2, O3) (Table A6-2 pharmacophore angle): 168.41 | Pharmacophore torsion angle a(H4, O1, O2, H3) [2]: 48.71 | Pharmacophore torsion angle a(H4, O1, O2, N2) [2]: 124.15 | Pharmacophore torsion angle a(N1, CA1, O2, H4) [2]: −128.41 | Pharmacophore torsion angle a(O1, H4, O2, CA1) [2]: −59.90 | Pharmacophore torsion angle a(O1, O2, N2, CA2) [3]: 140.87 | Pharmacophore torsion angle a(O1, O2, N2, CA3) [3]: −15.65 | Pharmacophore torsion angle a(O1, O2, N2, H1) [3]: −15.97 | Pharmacophore torsion angle a(O1, O2, N2, O3) [3]: −10.98

CC(NC(=O)C(CCc1ccccc1)NCc1ccc(C(=O)N2CCOCC2)cc1)C(=O)NCc1ccc(C(=N)N)cc1.Cl.Cl (stereo not shown) [1153_A]
Ligand-pharmacophore element distance, pharmacophore element C2: 8.69 | Ligand-pharmacophore element distance, pharmacophore element C3: 0 | Ligand-pharmacophore element distance, pharmacophore element C4: 0 | Ligand-pharmacophore element distance, pharmacophore element C5: 0 | Ligand-pharmacophore element distance, pharmacophore element C6: 0 | Ligand-pharmacophore element distance, pharmacophore element C7: 0 | Ligand-pharmacophore element distance, pharmacophore element CA1: 0.43 | Ligand-pharmacophore element distance, pharmacophore element CA2: 0.34 | Ligand-pharmacophore element distance, pharmacophore element CA3: 4.19 | Ligand-pharmacophore element distance, pharmacophore element CA4: 0 | Ligand-pharmacophore element distance, pharmacophore element CA5: 0 | Ligand-pharmacophore element distance, pharmacophore element CA6: 0 | d(CA1,N1): 3.54 | d(CA1,O1): 5.79 | d(CA1,O2): 4.38 | d(H4,O1): 6.25 | d(H4,O2): 4.36 | d(O1,O2): 4.62 | d(N2,C2) [1]: 8.34 | d(N2,CA2) [1]: 6.18 | d(N2,CA3) [1]: 3.78 | d(N2,O3) [1]: 7.78 | d(O2,H3) [1]: 2.71 | d(O2,N2) [1]: 2.88 | a(CA1, O1, O2): 99.83 | a(O1, O2, H4): 132.39 | A(N1, CA1, O1) a): 174.13 | a(O1, O2, H3) (Table A6-2 pharmacophore angle): 138.79 | a(O1, O2, N2) (Table A6-2 pharmacophore angle): 132.96 | a(O2, N2, C2) (Table A6-2 pharmacophore angle): 168.69 | a(O2, N2, CA2) (Table A6-2 pharmacophore angle): 152.46 | a(O2, N2, CA3) (Table A6-2 pharmacophore angle): 157.4 | a(O2, N2, O3) (Table A6-2 pharmacophore angle): 167.7 | Pharmacophore torsion angle a(H4, O1, O2, H3) [2]: 86.11 | Pharmacophore torsion angle a(H4, O1, O2, N2) [2]: 97.90 | Pharmacophore torsion angle a(N1, CA1, O2, H4) [2]: −11.60 | Pharmacophore torsion angle a(O1, H4, O2, CA1) [2]: 15.20 | Pharmacophore torsion angle a(O1, O2, N2, C2) [2]: 30.40 | Pharmacophore torsion angle a(O1, O2, N2, CA2) [3]: 116.41 | Pharmacophore torsion angle a(O1, O2, N2, CA3) [3]: 24.87 | Pharmacophore torsion angle a(O1, O2, N2, O3) [3]: 43.95 | Pharmacophore protein distance to MET_658 (first MET_658 column) (Table A8-6, 6th residue column, nearest protein atom in cell to the left): 2.53 | Pharmacophore protein distance to MET_658 (second MET_658 column) (Table A8-6, 9th residue column, nearest protein atom in cell to the left): 3.26 | Pharmacophore protein distance to GLY_528 [4]: 3.41 | Pharmacophore protein distance to PHE_529 [4]: 3.23 | Pharmacophore protein distance to PRO_608 [4]: 4.41 | Pharmacophore protein distance to SER_611 [4]: 2.46 | Pharmacophore protein distance to TRP_655 (Table A8-6, pharmacophore elements C6, CA3, O3, H1, nearest protein atom in cell to the left): 3.42
